Measured values reported in patent US6737383B1, “Herbicidal oxadiazolidines” (priority 1999, dated 2004).

Key:
velvetleaf = experiment: Test B pre/postemergence velvetleaf; type: in vivo, Abutilon theophrasti
How it was run: (§1)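 Response is a visual 0-to-10 score relative to untreated plants, where 0 means no effect and 10 means complete control, taken twelve to sixteen days after application. Treatments went onto soil at planting and onto foliage of 1- to 4-leaf plants, using a surfactant-containing non-phytotoxic solvent.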

soybean = experiment: Test B pre/postemergence soybean; type: in vivo, Glycine max
How it was run: as §1

sugar beet = experiment: Test B pre/postemergence sugar beet; type: in vivo, Beta vulgaris
How it was run: as §1

pigweed = experiment: Test B pre/postemergence pigweed; type: in vivo, Amaranthus retroflexus
How it was run: as §1

crabgrass = experiment: Test B pre/postemergence crabgrass; type: in vivo, Digitaria sanguinalis
How it was run: as §1

cocklebur = experiment: Test B pre/postemergence cocklebur; type: in vivo, Xanthium strumarium
How it was run: as §1

wild oat = experiment: Test B pre/postemergence wild oat; type: in vivo, Avena fatua
How it was run: as §1

wheat = experiment: Test B pre/postemergence wheat; type: in vivo, Triticum aestivum
How it was run: as §1

duck salad = experiment: Test B flood test duck salad; type: in vivo, Heteranthera limosa
How it was run: (§2)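 Each value is a visual injury score relative to controls, with 10 meaning complete control and 0 no effect. Evaluation took place twelve to sixteen days after the 2-leaf-stage plants were treated and kept in the greenhouse.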

giant foxtail = experiment: Test B pre/postemergence giant foxtail; type: in vivo, Setaria faberii
How it was run: as §1

corn = experiment: Test B pre/postemergence corn; type: in vivo, Zea mays
How it was run: as §1

bamyardgrass = experiment: Test B flood test barnyardgrass; type: in vivo, Echinochloa crus-galli
How it was run: as §2

purple nutsedge = experiment: Test B pre/postemergence purple nutsedge; type: in vivo, Cyperus rotundus
How it was run: as §1

morningglory = experiment: Test B pre/postemergence morningglory; type: in vivo, Ipomoea hederacea
How it was run: as §1

rape = experiment: Test B pre/postemergence rape; type: in vivo, Brassica napus
How it was run: as §1

[1] = Postemergence, Rate 62 g/ha, scale 0 to 10, 0 is no effect, 10 is complete control
[2] = Postemergence, Rate 125 g/ha, scale of 0 to 10 where 0 is no effect and 10 is complete control
[3] = Postemergence, Rate 250 g/ha, scale of 0 to 10, 0 is no effect, 10 is complete control
[4] = Preemergence, Rate 62 g/ha, scale of 0 to 10 where 0 is no effect and 10 is complete control
[5] = Preemergence, Rate 125 g/ha, scale of 0 to 10 where 0 is no effect and 10 is complete control
[6] = Preemergence, Rate 250 g/ha, scale 0 to 10 (0 no effect, 10 complete control)
[7] = Preemergence, Rate 500 g/ha, scale of 0 to 10 where 0 is no effect and 10 is complete control
[8] = Postemergence, Rate 500 g/ha, scale of 0 to 10 where 0 is no effect and 10 is complete control
[9] = Rate 62 g/ha, flood test species, Pre-emergence, visual evaluation after twelve to sixteen days
[10] = Rate 125 g/ha, under heading Pre-emergence, flood test species, visual evaluation after twelve to sixteen days
[11] = Rate 250 g/ha, Pre-emergence (flood test species), scale 0 to 10, 0 is no effect, 10 is complete control
[12] = Rate 500 g/ha, Pre-emergence section of Table B, 0 to 10 scale (0 no effect, 10 complete control)

**Q.** How did the “Plant response rating, Velvetleaf” value (velvetleaf; [1]) turn out when `CCCCCn1c(=O)on(C(=O)N(c2ccc(F)cc2F)C(C)C)c1=O` [Compound 636] was run?
**A.** 3

**Q.** And the “Plant response rating, Velvetleaf” value (velvetleaf; [2])?
**A.** 3

**Q.** What about the “Velvetleaf plant response rating” value (velvetleaf; [3]) of the same compound?
**A.** 3

**Q.** What about the “Velvetleaf plant response rating” value (velvetleaf; [4]) of the same compound?
**A.** 0

**Q.** And the “Velvetleaf plant response rating” value (velvetleaf; [5])?
**A.** 0

**Q.** What about the “Plant response rating, Velvetleaf” value (velvetleaf; [6]) of the same compound?
**A.** 2

**Q.** What about the “Plant response rating, Velvetleaf” value (velvetleaf; [7]) of the same compound?
**A.** 4

**Q.** What about the “Plant response rating, Soybean” value (soybean; [1]) of the same compound?
**A.** 2

**Q.** And the “Plant response rating, Soybean” value (soybean; [2])?
**A.** 2

**Q.** What about the “Soybean plant response rating” value (soybean; [3]) of the same compound?
**A.** 4

**Q.** And the “Soybean plant response rating” value (soybean; [4])?
**A.** 0

**Q.** What about the “Soybean plant response rating” value (soybean; [5]) of the same compound?
**A.** 0

**Q.** And the “Plant response rating, Soybean” value (soybean; [6])?
**A.** 0

**Q.** What about the “Plant response rating, Soybean” value (soybean; [7]) of the same compound?
**A.** 4

**Q.** What about the “Plant response rating, Sugarbeets” value (sugar beet; [1]) of the same compound?
**A.** 2

**Q.** What about the “Plant response rating, Sugarbeets” value (sugar beet; [2]) of the same compound?
**A.** 2

**Q.** What about the “Sugarbeets plant response rating” value (sugar beet; [3]) of the same compound?
**A.** 5

**Q.** And the “Sugarbeets plant response rating” value (sugar beet; [4])?
**A.** 0

**Q.** And the “Sugarbeets plant response rating” value (sugar beet; [5])?
**A.** 0

**Q.** And the “Plant response rating, Sugarbeets” value (sugar beet; [6])?
**A.** 6

**Q.** And the “Plant response rating, Sugarbeets” value (sugar beet; [7])?
**A.** 7

**Q.** What about the “Plant response rating, Redroot pigweed” value (pigweed; [1]) of the same compound?
**A.** 0

**Q.** What about the “Plant response rating, Redroot pigweed” value (pigweed; [2]) of the same compound?
**A.** 0

**Q.** And the “Redroot pigweed plant response rating” value (pigweed; [3])?
**A.** 6

**Q.** What about the “Redroot pigweed plant response rating” value (pigweed; [4]) of the same compound?
**A.** 10

**Q.** What about the “Redroot pigweed plant response rating” value (pigweed; [5]) of the same compound?
**A.** 10

**Q.** And the “Plant response rating, Redroot pigweed” value (pigweed; [6])?
**A.** 10

**Q.** What about the “Plant response rating, Redroot pigweed” value (pigweed; [7]) of the same compound?
**A.** 10

**Q.** And the “Plant response rating, Crabgrass” value (crabgrass; [1])?
**A.** 3

**Q.** What about the “Plant response rating, Crabgrass” value (crabgrass; [2]) of the same compound?
**A.** 9

**Q.** What about the “Crabgrass plant response rating” value (crabgrass; [3]) of the same compound?
**A.** 9

**Q.** And the “Plant response rating, Crabgrass” value (crabgrass; [8])?
**A.** 9

**Q.** What about the “Crabgrass plant response rating” value (crabgrass; [4]) of the same compound?
**A.** 8

**Q.** What about the “Crabgrass plant response rating” value (crabgrass; [5]) of the same compound?
**A.** 9

**Q.** And the “Plant response rating, Crabgrass” value (crabgrass; [6])?
**A.** 10

**Q.** And the “Plant response rating, Crabgrass” value (crabgrass; [7])?
**A.** 10

**Q.** What about the “Plant response rating, Cocklebur” value (cocklebur; [1]) of the same compound?
**A.** 0

**Q.** And the “Plant response rating, Cocklebur” value (cocklebur; [2])?
**A.** 3

**Q.** And the “Cocklebur plant response rating” value (cocklebur; [3])?
**A.** 3

**Q.** And the “Plant response rating, Cocklebur” value (cocklebur; [8])?
**A.** 3

**Q.** What about the “Cocklebur plant response rating” value (cocklebur; [4]) of the same compound?
**A.** 0

**Q.** What about the “Cocklebur plant response rating” value (cocklebur; [5]) of the same compound?
**A.** 0

**Q.** And the “Plant response rating, Cocklebur” value (cocklebur; [6])?
**A.** 0

**Q.** What about the “Plant response rating, Cocklebur” value (cocklebur; [7]) of the same compound?
**A.** 0

**Q.** And the “Plant response rating, Wild oats” value (wild oat; [1])?
**A.** 0

**Q.** What about the “Plant response rating, Wild oats” value (wild oat; [2]) of the same compound?
**A.** 0

**Q.** What about the “Wild oats plant response rating” value (wild oat; [3]) of the same compound?
**A.** 0

**Q.** And the “Wild oats plant response rating” value (wild oat; [4])?
**A.** 0

**Q.** And the “Wild oats plant response rating” value (wild oat; [5])?
**A.** 0

**Q.** What about the “Plant response rating, Wild oats” value (wild oat; [6]) of the same compound?
**A.** 0

**Q.** And the “Plant response rating, Wild oats” value (wild oat; [7])?
**A.** 5

**Q.** And the “Plant response rating, Wheat” value (wheat; [1])?
**A.** 0

**Q.** And the “Plant response rating, Wheat” value (wheat; [2])?
**A.** 0

**Q.** And the “Wheat plant response rating” value (wheat; [3])?
**A.** 0

**Q.** What about the “Wheat plant response rating” value (wheat; [4]) of the same compound?
**A.** 0

**Q.** And the “Wheat plant response rating” value (wheat; [5])?
**A.** 0

**Q.** What about the “Plant response rating, Wheat” value (wheat; [6]) of the same compound?
**A.** 0

**Q.** What about the “Plant response rating, Wheat” value (wheat; [7]) of the same compound?
**A.** 2

**Q.** And the “Plant response rating, Ducksalad (0 to 10 scale, 0 is no effect, 10 is complete control)” value (duck salad; [9])?
**A.** 0

**Q.** What about the “Ducksalad plant response rating (0 to 10 scale, 0 is no effect, 10 is complete control)” value (duck salad; [10]) of the same compound?
**A.** 0

**Q.** What about the “Ducksalad plant response rating” value (duck salad; [11]) of the same compound?
**A.** 0

**Q.** And the “Ducksalad plant response rating” value (duck salad; [12])?
**A.** 0

**Q.** And the “Plant response rating, Giant foxtail” value (giant foxtail; [1])?
**A.** 2

**Q.** What about the “Plant response rating, Giant foxtail” value (giant foxtail; [2]) of the same compound?
**A.** 7

**Q.** What about the “Giant foxtail plant response rating” value (giant foxtail; [3]) of the same compound?
**A.** 9

**Q.** What about the “Plant response rating, Giant foxtail” value (giant foxtail; [8]) of the same compound?
**A.** 9

**Q.** What about the “Giant foxtail plant response rating” value (giant foxtail; [4]) of the same compound?
**A.** 9

**Q.** And the “Giant foxtail plant response rating” value (giant foxtail; [5])?
**A.** 10

**Q.** What about the “Plant response rating, Giant foxtail” value (giant foxtail; [6]) of the same compound?
**A.** 10

**Q.** What about the “Plant response rating, Giant foxtail” value (giant foxtail; [7]) of the same compound?
**A.** 10

**Q.** And the “Plant response rating, Corn” value (corn; [1])?
**A.** 2

**Q.** What about the “Plant response rating, Corn” value (corn; [2]) of the same compound?
**A.** 2

**Q.** And the “Corn plant response rating” value (corn; [3])?
**A.** 2

**Q.** What about the “Plant response rating, Corn” value (corn; [8]) of the same compound?
**A.** 2

**Q.** What about the “Corn plant response rating” value (corn; [5]) of the same compound?
**A.** 0

**Q.** And the “Plant response rating, Corn” value (corn; [6])?
**A.** 0

**Q.** And the “Plant response rating, Corn” value (corn; [7])?
**A.** 3

**Q.** And the “Plant response rating, Barnyardgrass (0 to 10 scale, 0 is no effect, 10 is complete control)” value (bamyardgrass; [9])?
**A.** 0

**Q.** And the “Barnyardgrass plant response rating (0 to 10 scale, 0 is no effect, 10 is complete control)” value (bamyardgrass; [10])?
**A.** 0

**Q.** And the “Barnyardgrass plant response rating” value (bamyardgrass; [11])?
**A.** 0

**Q.** And the “Barnyardgrass plant response rating” value (bamyardgrass; [12])?
**A.** 2

**Q.** What about the “Plant response rating, Nutsedge” value (purple nutsedge; [1]) of the same compound?
**A.** 0

**Q.** And the “Plant response rating, Nutsedge” value (purple nutsedge; [2])?
**A.** 0

**Q.** What about the “Nutsedge plant response rating” value (purple nutsedge; [3]) of the same compound?
**A.** 0

**Q.** And the “Plant response rating, Nutsedge” value (purple nutsedge; [8])?
**A.** 0

**Q.** And the “Nutsedge plant response rating” value (purple nutsedge; [4])?
**A.** 0

**Q.** What about the “Nutsedge plant response rating” value (purple nutsedge; [5]) of the same compound?
**A.** 0

**Q.** What about the “Plant response rating, Nutsedge” value (purple nutsedge; [6]) of the same compound?
**A.** 0

**Q.** And the “Plant response rating, Nutsedge” value (purple nutsedge; [7])?
**A.** 10

**Q.** What about the “Plant response rating, Morningglory” value (morningglory; [1]) of the same compound?
**A.** 2

**Q.** And the “Plant response rating, Morningglory” value (morningglory; [2])?
**A.** 2

**Q.** And the “Morningglory plant response rating” value (morningglory; [3])?
**A.** 6

**Q.** What about the “Plant response rating, Morningglory” value (morningglory; [8]) of the same compound?
**A.** 6

**Q.** What about the “Morningglory plant response rating” value (morningglory; [4]) of the same compound?
**A.** 0

**Q.** What about the “Morningglory plant response rating” value (morningglory; [5]) of the same compound?
**A.** 0

**Q.** And the “Plant response rating, Morningglory” value (morningglory; [6])?
**A.** 0

**Q.** What about the “Plant response rating, Morningglory” value (morningglory; [7]) of the same compound?
**A.** 2

**Q.** What about the “Plant response rating, Rape” value (rape; [1]) of the same compound?
**A.** 2

**Q.** What about the “Plant response rating, Rape” value (rape; [2]) of the same compound?
**A.** 6

**Q.** And the “Rape plant response rating” value (rape; [3])?
**A.** 7

**Q.** And the “Plant response rating, Rape” value (rape; [8])?
**A.** 7

**Q.** And the “Rape plant response rating” value (rape; [4])?
**A.** 0

**Q.** What about the “Rape plant response rating” value (rape; [5]) of the same compound?
**A.** 2

**Q.** And the “Plant response rating, Rape” value (rape; [6])?
**A.** 7

**Q.** What about the “Plant response rating, Rape” value (rape; [7]) of the same compound?
**A.** 10
